This note sets out measurements from patent publication US12595253B2, “Benzamides of pyrazolylamino-pyrimidinyl derivatives, and compositions and methods thereof” (LYNK PHARMACEUTICALS CO. LTD., priority 2019, dated 2026).

A short description of series [1]: Liver microsomes study, Phase I stability (RLM). The following applies: pH 7.4; rat liver microsomes 0.5 mg/mL, 1 μM test article; read-out: RLM Clint. The class given is in vitro ADME, rat. The method, boiled down:
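Phase I turnover was followed by LC/MS/MS of parent compound remaining at 0, 10, 30 and 90 min in NADPH-fortified rat or human microsomes, with cold acetonitrile quench. Half-life and intrinsic clearance were derived from the log-linear depletion slope and the inverse protein concentration.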

A further series addresses T1, CYP2C19 (Homo sapiens, UniProt P33261).
T1 construct: 0.2 mg/mL human liver microsomes was pre-incubated in 180 μL reaction mixture; from tissue; host or cells: pooled human liver microsomes
In words: CYPs inhibition in pooled human liver microsomes, probe substrate S-mephenytoin. The class given is in vitro ADME. How it is done:
The inhibitory potential of test articles in pooled human liver microsomes was evaluated by the method using a cocktail of CYP substrates. […] For the negative control well, the test articles was replaced with 20 μL reaction buffer. After 10 min of pre-incubation at 37° C., 20 μL 10 mM NADPH cofactor was added to the pre-reaction mixtures. After another 10 min incubation, the reaction was stopped by adding 400 μL of ice cold acetonitrile solution containing tolbutamide and labetalol served as internal standards. The incubation mixtures were centrifuged at 4000×g for 20 min, and then the supernatants were analyzed by LC-MS/MS after dilution. SigmaPlot was applied to plot % control activity versus the test compound concentrations, and for non-linear regression analysis of the data. IC50 values of test articles were determined using 3-parameter logistic equation.

Another series concerns the target T2, FLT3 (Homo sapiens, UniProt P36888).
T2 construct: purchased Carna Biosciences
T2 sequence (P36888 27-993): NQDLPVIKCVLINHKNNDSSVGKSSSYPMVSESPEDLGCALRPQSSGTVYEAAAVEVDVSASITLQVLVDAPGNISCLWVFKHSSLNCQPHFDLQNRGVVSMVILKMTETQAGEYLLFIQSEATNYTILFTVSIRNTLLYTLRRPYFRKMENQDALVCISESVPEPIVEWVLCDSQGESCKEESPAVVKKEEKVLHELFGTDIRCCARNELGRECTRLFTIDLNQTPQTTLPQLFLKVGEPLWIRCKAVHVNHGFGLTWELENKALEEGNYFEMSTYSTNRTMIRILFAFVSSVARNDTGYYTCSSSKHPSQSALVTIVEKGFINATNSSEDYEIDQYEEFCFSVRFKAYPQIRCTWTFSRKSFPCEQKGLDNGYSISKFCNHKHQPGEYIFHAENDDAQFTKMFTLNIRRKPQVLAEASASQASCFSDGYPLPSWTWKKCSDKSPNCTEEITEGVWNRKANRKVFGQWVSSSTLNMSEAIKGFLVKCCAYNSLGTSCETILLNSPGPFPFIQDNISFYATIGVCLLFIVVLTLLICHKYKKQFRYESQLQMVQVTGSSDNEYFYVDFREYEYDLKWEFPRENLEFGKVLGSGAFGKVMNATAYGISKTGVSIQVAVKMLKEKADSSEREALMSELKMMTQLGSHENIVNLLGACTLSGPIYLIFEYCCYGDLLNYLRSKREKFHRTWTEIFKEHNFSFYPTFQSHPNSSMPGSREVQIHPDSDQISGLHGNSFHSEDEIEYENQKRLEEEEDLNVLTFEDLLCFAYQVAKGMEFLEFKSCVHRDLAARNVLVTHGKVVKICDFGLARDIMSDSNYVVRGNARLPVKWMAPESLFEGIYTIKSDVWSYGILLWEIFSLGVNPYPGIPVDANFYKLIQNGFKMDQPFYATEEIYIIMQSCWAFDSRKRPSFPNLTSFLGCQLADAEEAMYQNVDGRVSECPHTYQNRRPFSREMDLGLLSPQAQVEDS
The series can be described thus: FLT3 microfluidic kinase assay. The class given is biochemical. As to the method: Compounds were tested against FLT3, FLT3ITD and FLT3D835Y.
Assay Formats: FLT3 activity was determined in the reaction buffer 50 mM HEPES, 10 mM MgCl2 and 2 mM DTT by a microfluidic assay. The phosphorylation of a FAM labeled peptide substrate was monitored in the Caliper EZ Reader II (Perkin Elmer). The assay condition for each batch of enzyme (Carna Biosciences) was optimized to obtain 10% conversion rate of peptide substrate.
The test compounds were dissolved in DMSO to a stock concentration of 10 mM. 3-fold serially diluted compounds with top concentration of 5 μM were pre-incubated with FLT3, FLT3ITD or FLT3D835Y for 10 min at ambient temperature. The final DMSO concentration of assay mixture was 1%. […] The reaction was stopped by adding 50 mM EITA. The reaction time for FLT3, FLT3ITD and FLT3D8335Y was 30 min, 40 min and 40 min, respectively.
And the well without compound but with equivalent DMSO was defined as no inhibition. The percent inhibition was calculated by the following formula. % Inhibition=(Conversionmax−Conversionsample)/(Conversionmax−Conversionmin)*100 • Conversionmax means the conversion rate in the positive well without addition of compound • Conversionmin means the conversion rate in the well without addition of enzyme • Conversionsample means the conversion rate of test compounds
The dose-response (percent inhibition) curve was plotted and IC50 values were determined by GraphPad software.

T1 sequence (P33261 whole entry): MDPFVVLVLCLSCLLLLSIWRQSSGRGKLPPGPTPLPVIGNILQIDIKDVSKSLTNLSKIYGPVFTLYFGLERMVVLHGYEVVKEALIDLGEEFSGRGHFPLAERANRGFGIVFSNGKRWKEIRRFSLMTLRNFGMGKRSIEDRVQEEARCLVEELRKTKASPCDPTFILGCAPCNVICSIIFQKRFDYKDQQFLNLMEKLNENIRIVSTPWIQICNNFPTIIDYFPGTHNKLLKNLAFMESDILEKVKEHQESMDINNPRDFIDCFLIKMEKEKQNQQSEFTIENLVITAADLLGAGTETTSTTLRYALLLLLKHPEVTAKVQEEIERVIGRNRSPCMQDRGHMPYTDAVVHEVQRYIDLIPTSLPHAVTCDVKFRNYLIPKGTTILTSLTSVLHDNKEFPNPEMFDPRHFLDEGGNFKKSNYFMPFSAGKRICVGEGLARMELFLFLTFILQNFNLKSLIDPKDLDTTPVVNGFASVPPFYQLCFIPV

With `Cc1cnc(Nc2cnn(CC#N)c2)nc1-c1ccc(C(=O)NCC#N)cc1` [Example 4, N-(Cyanomethyl)-4-(2-((1-(cyanomethyl)-1H-pyrazol-4-yl)amino)-5-methylpyrimidin-4-yl)benzamide], the microsomal CLint at 1 μM in series [1] worked out at 16.4 µL/min/mg. Besides, the IC50 against CYP2C19 was > 50000 nM.

At FLT3, `CNC(=O)c1ccc(-c2nc(Nc3cnn(C)c3)ncc2C)cc1` [Example 10, N-Methyl-4-(5-methyl-2-((1-methyl-1H-pyrazol-4-yl)amino)pyrimidin-4-yl)benzamide] came in with an IC50 of 1200 nM. For `Cn1cc(Nc2ncc(Cl)c(-c3ccc(C(=O)NCC#N)cc3)n2)cn1` [Example 34, 4-(5-Chloro-2-((1-methyl-1H-pyrazol-4-yl)amino)pyrimidin-4-yl)-N-(cyanomethyl)benzamide], the microsomal CLint at 1 μM in series [1] stood at 31.6 µL/min/mg. Also, on FLT3, the IC50 turned out to be 10.9 nM. Take `C[C@@H](C#N)NC(=O)c1ccc(-c2nc(Nc3cnn(C4CCN(C)CC4)c3)ncc2Cl)cc1` [Example 43, (S)-4-(5-Chloro-2-((1-(1-methylpiperidin-4-yl)-1H-pyrazol-4-yl)amino)pyrimidin-4-yl)-N-(1-cyanoethyl)benzamide]: the microsomal CLint at 1 μM in series [1] came to 101 µL/min/mg. In addition, the IC50 against CYP2C19 was > 50000 nM. Compound `CC[C@@H](C#N)NC(=O)c1ccc(-c2nc(Nc3cnn(C4CC4)c3)ncc2Cl)cc1` [Example 61, (S)-4-(5-chloro-2-((1-cyclopropyl-1H-pyrazol-4-yl)amino)pyrimidin-4-yl)-N-(1-cyanopropyl)benzamide] registered an IC50 on FLT3 of 3.36 nM. On to `N#CCNC(=O)c1ccc(-c2nc(Nc3cnn(C4CC4)c3)ncc2Cl)cc1` [Example 95, 4-(5-Chloro-2-((1-cyclopropyl-1H-pyrazol-4-yl)amino)pyrimidin-4-yl)-N-(cyanomethyl)benzamide], for which the microsomal CLint at 1 μM in series [1] is 31.1 µL/min/mg. Further, the IC50 on FLT3 came out at 5.35 nM. `C[C@@H](C#N)NC(=O)c1ccc(-c2nc(Nc3cnn(C4CC4)c3)ncc2Cl)cc1` [Example 111, (S)-4-(5-Chloro-2-((1-cyclopropyl-1H-pyrazol-4-yl)amino)pyrimidin-4-yl)-N-(1-cyanoethyl)benzamide]: the IC50 against FLT3 stood at 6.73 nM. For `Cc1cnc(Nc2cnn(C3CC(C)(C)OC(C)(C)C3)c2)nc1-c1ccc(C(=O)NCC#N)cc1` [Example 113, N-(cyanomethyl)-4-(5-methyl-2-((1-(2,2,6,6-tetramethyltetrahydro-2H-pyran-4-yl)-1H-pyrazol-4-yl)amino)pyrimidin-4-yl)benzamide], the microsomal CLint at 1 μM in series [1] worked out at 73.9 µL/min/mg. The same compound came in with an IC50 at CYP2C19 of 6360 nM. As for `Cc1cnc(Nc2cnn(C3CCN(C(=O)CO)CC3)c2)nc1-c1ccc(C(=O)N[C@@H](C)C#N)cc1` [Example 119, (S)—N-(1-cyanoethyl)-4-(2-((1-(1-(2-hydroxyacetyl)piperidin-4-yl)-1H-pyrazol-4-yl)amino)-5-methylpyrimidin-4-yl)benzamide], the IC50 against CYP2C19 is > 50000 nM. In the case of `C[C@@H](C#N)NC(=O)c1ccc(-c2nc(Nc3cnn(C)c3)ncc2Cl)cc1` [Example 125, (S)-4-(5-chloro-2-((1-methyl-1H-pyrazol-4-yl)amino)pyrimidin-4-yl)-N-(1-cyanoethyl)benzamide], the microsomal CLint at 1 μM in series [1] was 28.4 µL/min/mg. Further, the IC50 against FLT3 was found to be 23.6 nM. As to `C[C@@H](C#N)NC(=O)c1ccc(-c2nc(Nc3cnn(C4CCNCC4)c3)ncc2Cl)cc1` [Example 165, (S)-4-(5-chloro-2-((1-(piperidin-4-yl)-1H-pyrazol-4-yl)amino)pyrimidin-4-yl)-N-(1-cyanoethyl)benzamide], in series [1], the microsomal CLint at 1 μM was determined as 26 µL/min/mg. On CYP2C19, the concentration for half-maximal inhibition (IC50) was > 50000 nM. For the compound `CC[C@@H](C#N)NC(=O)c1ccc(-c2nc(Nc3cnn(C4CCNCC4)c3)ncc2Cl)cc1` [Example 183, (S)-4-(5-chloro-2-((1-(piperidin-4-yl)-1H-pyrazol-4-yl)amino)pyrimidin-4-yl)-N-(1-cyanopropyl)benzamide], the microsomal CLint at 1 μM in series [1] worked out at 18.9 µL/min/mg. Moreover, the IC50 against CYP2C19 is > 50000 nM. Take `CC[C@@H](C#N)NC(=O)c1ccc(-c2nc(Nc3cnn(C4CCN(C)CC4)c3)ncc2C)cc1` [Example 184, (S)—N-(1-Cyanopropyl)-4-(5-methyl-2-((1-(1-methylpiperidin-4-yl)-1H-pyrazol-4-yl)amino)pyrimidin-4-yl)benzamide]: the microsomal CLint at 1 μM in series [1] stood at 78.5 µL/min/mg. Moreover, the IC50 at CYP2C19 was > 50000 nM. For the compound `CCNC(=O)c1ccc(-c2nc(Nc3cnn(C)c3)ncc2C)cc1` [Example 222, N-ethyl-4-(5-methyl-2-((1-methyl-1H-pyrazol-4-yl)amino)pyrimidin-4-yl)benzamide], 1890 nM corresponded to half-maximal inhibition at FLT3 (IC50). Same read-out and setting: for `Cc1cnc(Nc2cnn(C)c2)nc1-c1ccc(C(=O)NC(C)C)cc1` [Example 223, N-isopropyl-4-(5-methyl-2-((1-methyl-1H-pyrazol-4-yl)amino)pyrimidin-4-yl)benzamide] the value was 1100 nM.
